Data taken from patent US12544373B2, “Treatment of cancer, inflammatory diseases and autoimmune diseases” (Usher III Initiative, Inc., priority 2020, dated 2026).
Where two headings read alike, the source gives them in different places.

Key:
Type in all cases: cell-based, human
[1] = test system: PAXF 1657; test: CellTiter-Blue 2D monolayer assay (Example 1), pancreas; conditions: for Test/Control (%): 72 h
Procedure: (§1) Compound 85 was assessed in 10 human tumor cell lines (see Table 3) for anti-cancer activity in vitro using a CellTiter-Blue® based 2D monolayer assay.
(§2) CellTiter-Blue® Cell Viability Assay: Tumor cells were grown at 37° C. in a humidified atmosphere with 5% CO2 in RPMI medium, supplemented with 10% (v/v) fetal calf serum and 50 μg/ml gentamicin (140 μl/well). Cultures were incubated at 37° C. and 5% CO2 in a humidified atmosphere. After 24 hours, 10 μl of Compound 85 was added, and left on the cells for another 72 hours (incubation period). Compound 85 was tested at 5 concentrations (0.003 μM, 0.03 μM, 0.3 μM, 3 μM, and 30 μM) and serially diluted in DMSO, mixed with cell culture medium, and added to the assay plates by using a Tecan Freedom EVO 200 robotic platform. The DMSO concentration was kept constant at 0.3% yip across the assay plate. Every 96 well plate included six DMSO-treated control wells and Compound 85-treated wells in duplicate at 5 concentrations. Viability of cells was quantified using the CellTiter-Blue® cell viability assay (Promega G8081). After incubation of cells, the CellTiter-Blue® reagent was brought to ambient temperature. Next, 20 μl of CellTiter-Blue® reagent were added to each well. After incubation tier up to 4 hours, fluorescence (FU) was measured using the EnSpire® multimode plate reader (Perkin Elmer) ([…]).
(§3) Data Evaluation: Sigmoidal concentration-response curves were fitted to the data points (test-versus-control; T/C values) obtained for each tumor model using 4 parameter non-linear curve fit (Charles River DRS Datawarehouse Software). Drug effects are expressed in terms of the percentage of the fluorescence signal, obtained by comparison of the mean signal in the treated wells with the mean signal of the untreated controls (T/C-value [%]) (Table 4). IC50 and IC70 values were reported as relative and absolute IC50 and IC70 values (Table 5). The absolute IC50 and IC70 values reflect the concentration of Compound 85 that achieves T/C=50% and T/C=30%, respectively. The relative IC50 value is the concentration of Compound 85 that gives a response half way between the top and bottom plateau of the sigmoidal concentration-response curve (inflection point of the curve).

[2] = test system: CNXF 498; test: CellTiter-Blue 2D monolayer assay (Example 1), glioblastoma; conditions: for Test/Control (%): 72 h
Procedure: as §1, §2, §3

[3] = test system: CNXF U-87 MG; test: as above; conditions: for Test/Control (%): 72 h
Procedure: as §1, §2, §3

[4] = test system: CNXF 498; test: CellTiter-Blue Cell Viability Assay (Example 2), glioblastoma; conditions: for T/C %: 72 h
Text: (§4) The CellTiter-Blue® Cell Viability Assay was used to assess the viability of cells from various cancer cell lines, in the presence or absence of Compound 85 (at different concentrations). This assay provides a homogeneous, fluorometric method for estimating the number of viable cells present in multi-well plates. Viable cells retain the ability to reduce resazurin to resorufin, which is highly fluorescent. […] The fluorescence produced is proportional to the number of viable cells. There is a linear relationship between cell number and fluorescence.
(§5) Cancer cells (see Table 6) were harvested from exponential phase cultures, counted and plated in 96 well flat-bottom microtiter plates, at a cell density 6,000-20,000 cells/well, depending on the cell line's growth rate. The culture medium was supplemented with 10% (v/v) foetal calf serum and 50 μg/mL gentamicin (140 μL/well). Cultures were incubated at 37° C. and 5% CO2 in a humidified atmosphere.
(§6) Compound 85 was serially diluted in DMSO, and five Compound 85 concentrations in half-log increments were used: 0.03 μM, 0.09 μM, 0.30 μM, 1.0 μM, and 3.0 μM. After 24 h, 10 μL of Compound 85 (dissolved in DMSO) or control (DMSO) medium were added, in duplicates, and left on the cells for another 72 h. Compound 85 solutions were added to the assay plates using a Tecan Freedom EVO 200 robotic platform. The DMSO concentration was kept constant at 0.3% v/v across the assay plate.
(§7) After incubation of up to 72 hours, fluorescence (FU) was measured using the EnSpire® multimode plate reader (Perkin Elmer) (excitation λ=570 nm, emission λ=600 nm).
(§8) Cancer cell lines used: Compound 85's anti-cancer effect was tested in 20 human cancer-cell lines representing nine cancer types (Table 6).
(§9) The percentage of viable cells in the presence of Compound 85 (Test condition, T), at different concentrations, are presented in Table 7 and expressed as a percentage of the number of viable cells in the presence of DMSO without Compound 85 (Control condition, C).
(§10) The relative IC50 is determined as the Compound 85 concentration giving a response halfway between the maximum cell viability signal (i.e., a 100% cell viability, no Compound 85 response) and the minimal viability signal (i.e. maximum cell viability inhibition achieved by Compound 85), in a sigmoidal concentration-effect curve.
(§11) The absolute IC50 is determined as the concentration that is associated with a T/C ratio of 50%.

[5] = test system: CNXF U-87 MG; test: as above; conditions: for T/C %: 72 h
Text: as §4, §5, §6, §7, §8, §9, §10, §11

CC(C)(O)Cn1nc(-c2ccccc2)c2c(Cl)c(-c3ccccc3)nnc21 [Compound 85]
Rel. IC70 [1]: 2043 nM
Test/Control (%) ([1]; 0.003 μM): 100%
Test/Control (%) ([1]; 0.03 μM): 100%
Test/Control (%) ([1]; 0.3 μM): 100%
Test/Control (%) ([1]; 3 μM): 3%
Test/Control (%) ([1]; 30 μM): 1%
Abs. IC70 ([1]; T/C=30%): 2055 nM
IC50 ([1]; T/C=50%, read-out: Abs. IC50): 1850 nM
Bot. (%) ([1]; bottom plateau of curve): 1%
IC50 ([1]; read-out: Rel. IC50): 1840 nM
Top (%) ([1]; top plateau of curve): 100%
Rel. IC70 [2]: 1868 nM
Test/Control (%) ([2]; 0.003 μM): 106%
Test/Control (%) ([2]; 0.03 μM): 107%
Test/Control (%) ([2]; 0.3 μM): 113%
Test/Control (%) ([2]; 3 μM): 2%
Test/Control (%) ([2]; 30 μM): 1%
Abs. IC70 ([2]; T/C=30%): 1901 nM
IC50 ([2]; T/C=50%, read-out: Abs. IC50): 1740 nM
Bot. (%) ([2]; bottom plateau of curve): 1%
IC50 ([2]; read-out: Rel. IC50): 1710 nM
Top (%) ([2]; top plateau of curve): 109%
Rel. IC70 [3]: 987 nM
Test/Control (%) ([3]; 0.003 μM): 99%
Test/Control (%) ([3]; 0.03 μM): 102%
Test/Control (%) ([3]; 0.3 μM): 102%
Test/Control (%) ([3]; 3 μM): 1%
Test/Control (%) ([3]; 30 μM): 4%
Abs. IC70 ([3]; T/C=30%): 994 nM
IC50 ([3]; T/C=50%, read-out: Abs. IC50): 940 nM
Bot. (%) ([3]; bottom plateau of curve): 3%
IC50 ([3]; read-out: Rel. IC50): 935 nM
Top (%) ([3]; top plateau of curve): 101%
Absolute IC70 [4]: 1901 nM
Relative IC70 [4]: 1868 nM
T/C % ([4]; 0.03 μM): 106%
T/C % ([4]; 0.095 μM): 107%
T/C % ([4]; 0.3 μM): 113%
T/C % ([4]; 0.95 μM): 2%
T/C % ([4]; 3.0 μM): 1%
IC50 ([4]; read-out: Absolute IC50): 1740 nM
IC50 ([4]; read-out: Relative IC50): 1710 nM
Absolute IC70 [5]: 993.8 nM
Relative IC70 [5]: 986.9 nM
T/C % ([5]; 0.03 μM): 99%
T/C % ([5]; 0.095 μM): 102%
T/C % ([5]; 0.3 μM): 102%
T/C % ([5]; 0.95 μM): 1%
T/C % ([5]; 3.0 μM): 4%
IC50 ([5]; read-out: Absolute IC50): 940 nM
IC50 ([5]; read-out: Relative IC50): 935 nM
